In patent EP1143992B1, “THERAPEUTIC COMPOSITIONS CONTAINING GLUTATHIONE ANALOGS” (TELIK, INC., priority 1999, dated 2000):
Like-named read-outs stand apart in the source and are kept apart here.

What was measured:
[1] = Drug/Lipid 0.25, EPC/EPG (1/1), Sucrose 300 mM
[2] = Particle size of lipid microspheres; assay type: physicochemical; details: lipid microspheres after 1.2µm filter, 300 µg/mL
Method: Then 2.21 gm of glycerol and enough distilled water to bring the volume to 100 mL(approximately 90 mL) were added, followed by a rough emulsification by means of a homogenizer. The product is then further emulsified by means of a manton gaulin type homogenizer. […]

[3] = test system: fluorouracil-induced neutropenia; details: rats; fluorouracil 125mg/kg intraperitoneally; liposomal formulation of Example 4, 35mg/kg, 8 daily intravenous injections; Figure 1
Method: Male CD rats (250-300g) were injected intraperitoneally with either the antineoplastic drug, fluorouracil (125mg/kg) or an equivalent volume of its vehicle (saline). […] Rats originally injected with saline rather than fluorouracil received saline intravenously (n = 7). Blood samples were taken for measurement of neutrophil levels prior to the fluorouracil and every 1 to 2 days thereafter for 14 days.

[4] = Method: The lyophilization cycle involved rapid freezing of the sample (2.5 ml fill of 10 ml vial) to a sample temperature of -50°C, followed by lyophilization at a tray temperature of -35°C for 42 hours to remove primary water, and for 2 hours at 20°C to remove secondary water.
The MLVs may be passed (5-10x) through stacked polycarbonate filters (pore size of 80 nm) using an EXTRUDER (Lipex Biomembranes, Vancouver, Canada).

[5] = test system: circulating neutrophil levels; details: normal rats; liposomal formulation of Example 4, 35mg/kg, i.v., 5 daily injections; Figure 2
Description: Blood samples were taken for measurement of neutrophil levels daily.

For `CCOC(=O)C(N)CCC(=O)NC(CSCc1ccccc1)C(=O)N[C@@H](C(=O)OCC)c1ccccc1.Cl` (stereo partly shown) [Compound 9, γ-Glutamyl-S(benzyl)cysteinyl-R-phenyl glycine diethyl ester hydrochloride], the Viscosity ([1]; Lyophilization Time 32 hr) was “Negligible”, the Viscosity ([1]; Lyophilization Time 40 hr) was “Negligible” and the Viscosity ([1]; Lyophilization Time 44 hr) was “Negligible”. The Viscosity ([1]; Lyophilization Time 54 hr) was “Viscous”, the Viscosity ([1]; Lyophilization Time 59 hr) was “Very Viscous” and the “particles of final emulsion” value [2] was “approximately 220 nM”. For the same molecule, the “recovery from chemotherapy-induced neutropenia” value [3] was “accelerated recovery”, the “Drug (mg/ml)” value ([4]; ethanol dilution, Drug/Lipid 0.25 wt/wt, EPC, comparative example) was 16.2. mg/ml and the “precipitated form of the drug” value ([4]; removed by extrusion through 80 nm filters) was < 2%. For the same molecule, the circulating neutrophil levels [5] was “increased”.
